Experimental data published in patent US4892887A, “N,N'-bis(sulfonyl)hydrazines having antineoplastic activity” (Yale University, priority 1988, dated 1990).
Like-named read-outs stand apart in the source and are kept apart here.

How the values were obtained:
L1210 leukemia = test: Survival time of mice bearing the L1210 leukemia; format: in vivo, mouse (CDF-1 mice); conditions: for Av. Change wt. %: L1210 mice; for Antineoplastic Activity (max. % T/C from Table III): Table II, L1210 leukemia; for activity against the L1210 leukemia (in words): mouse, in vivo
Description: The ascites cell forms of the L1210 leukemia, Sarcoma 180 and P388 leukemia were propagated in CDF-1 mice. […] Mice were weighed during the course of the experiments, and the percentage change in body weight from the onset to termination of therapy was used as an indication of host toxicity.
Each value represents the average of 5 animals per group.

B16 melanoma = test: Survival time of mice bearing the B16 melanoma; format: in vivo, mouse (C57B1 mice); conditions: for Max. % T/C: Table IV, B16, at optimum effective daily dose; for Av. Change in wt., %: at optimum effective daily dose, B16 mice; for dosage range of activity against the B16 melanoma: B16 melanoma in mice
Experimental: This tumor was propagated in C57B1mice. Transplantation was carried out by removing tumors from donor mice bearing 14-day subcutaneous tumor growths. The tissue was fragmented to make a well-dispersed cellular suspension and diluted with Fischer's medium without serum so that one gram of tissue was suspended in 5 ml of solution. A portion (0.2 ml) of the resulting cell suspension was injected intraperitoneally into each recipient animal. All compounds were administered over a wide range of dosage levels by intraperitoneal injection, beginning 24 hours after tumor implantation, once daily for 6 consecutive days. The test compounds were injected as fine suspensions following homogenization in 2 to 3 drops of 20% aqueous Tween 80 and then made up to volume with isotonic saline. […] Mice were weighed during the course of the experiments, and the percent change in body weight from onset to termination of therapy was used as an indication of drug toxicity. Determination of the sensitivity of neoplasms to these agents was based on the prolongation of survival time afforded by the drug treatments.
^a Administered once daily for six consecutive days, beginnign 24
hours after tumor transplanation, with 5 animals being used per group.
^b Average change in body weight from onset to termination of therapy
^c % T/C = average survival time of treated/control animals ×
100. Each value represents the average of 5 animals per group.

[1] = Alkylation of 4-(4-nitrobenzyl)pyridine, absorbance at 540 nm (modified Wheeler and Chumley); conditions: for Relative Alkylating Activity: (O.D. test sample/O.D. compound 8) × 100, pH 7.4, 37°C, 540 nm
Experimental: Since compounds 1-13 were conceived as prodrugs of the alkylating species (II), representative compounds of this class, viz. 1-6, 8 and 10 were tested for alkylating ability using a modification of the method of Wheeler and Chumley. This method measured the absorbance at 540 nm of the alkylated product of 4-(4-nitrobenzyl)pyridine.
^a A solution of the test sample (12 micromoles) in 1 ml of acetone,
ml of distilled water and 1 ml of TrisHCl buffer (pH 7.4) was incubated
with 4(4-nitrobenzyl) pyridine (148 micromoles in 0.4 ml of acetone) for
hr at 37°C. Following additon of 2 ml of acetone and 1.5 ml of 0.2
M NaOH, the material was extracted with 5 ml of ethyl acetate. The
absorbance was determined at 540 nm 30 seconds after the addition of the
sodium hydroxide solution. The greater the absorbance value, the greater
the degree of alkylation
^b Relative Alkylating activity = (O.D. for test sample/O.D. for […]

Sarcoma 180 = test: Survival time of mice bearing Sarcoma 180; format: in vivo, mouse (CDF-1 mice)
Experimental: (§1) The tumor-inhibitory properties of compounds 1-12 were determined by measuring their effects on the survival time of mice bearing the L1210 leukemia and in some cases Sarcoma 180, and the P388 leukemia. The ascites cell forms of the L1210 leukemia, Sarcoma 180 and P388 leukemia were propagated in CDF-1 mice. Transplantation was carried out using donor mice bearing 7-day tumor growths; experimental details are described in Agrawal et al., J. Med. Chem., 11, 700, 1968, incorporated herein by reference. Mice were weighed during the course of the experiments, and the percentage change in body weight from the onset to termination of therapy was used as an indication of host toxicity.

P388 leukemia = test: Survival time of mice bearing the P388 leukemia; format: in vivo, mouse (CDF-1 mice); conditions: at 150 mg/kg
Experimental: as §1

B16 melanoma cells = test: Cytotoxicity: colony-forming ability of B16 melanoma cells; format: cell-based; conditions: Mus musculus, 1 hour exposure, 12 days incubation, average of two determinations, read-out: LD50 (the source's name)
Experimental: The cytotoxicity of compounds 8 and 12 was determined by measuring their effects on the colony-forming ability of B16 melanoma cells. The cells were maintained in Eagle's minimum essential medium supplemented with 10% fetal bovine serum. To obtain exponentially growing B16 melanoma cells, a 25 cm^2 flask was inoculated with 10^5 cells for two days before addition of drug. The cell monolayer was exposed to various concentrations of compound for 1 hour. After exposure, the layer was washed twice with PBS to remove the compound. The cells were harvested with 2 mM EDTA in PBS, and 200 cells were plated on a 60 mm dish with 5 mL of medium. After incubation for 12 days, the colonies were stained with crystal violet and counted. […] The LD50 was determined from the individual dose-response curves.

[2] = 50 mg/kg once daily for six days
[3] = 100 mg/kg once daily for six days
[4] = 150 mg/kg once daily for six days
[5] = Mus musculus, 144 h, 50 mg/kg once daily for six days, L1210, read-out: % T/C
[6] = Mus musculus, 144 h, 100 mg/kg once daily for six days, L1210, read-out: % T/C
[7] = Mus musculus, 144 h, 150 mg/kg once daily for six days, L1210, read-out: % T/C
[8] = 10 mg/kg once daily for six days
[9] = 20 mg/kg once daily for six days
[10] = 30 mg/kg once daily for six days

| Compound | Average Survival Time of Treated Animals, days ± SE (L1210 leukemia; [2]) | Av. Change wt. % (L1210 leukemia; [2]) | Average Survival Time of Treated Animals, days ± SE (L1210 leukemia; [3]) | Av. Change wt. % (L1210 leukemia; [3]) | Average Survival Time of Treated Animals, days ± SE (L1210 leukemia; [4]) | Av. Change wt. % (L1210 leukemia; [4]) | response vs control in vivo at 50 mg/kg (L1210 leukemia; [5]) | response vs control in vivo at 100 mg/kg (L1210 leukemia; [6]) | response vs control in vivo at 150 mg/kg (L1210 leukemia; [7]) | Antineoplastic Activity (max. % T/C from Table III) (L1210 leukemia) | activity against the L1210 leukemia (in words) (L1210 leukemia) | Max. % T/C (B16 melanoma) | Av. Change in wt., % (B16 melanoma) | Relative Alkylating Activity [1] | further results |
| --- | --- | --- | --- | --- | --- | --- | --- | --- | --- | --- | --- | --- | --- | --- | --- |
| Cc1ccc(S(=O)(=O)NN(C)S(=O)(=O)c2ccc(Cl)cc2)cc1 [Compound 5, N-(p-chlorobenzenesulfonyl)-N-methyl-N'-(p-toluenesulfonyl)hydrazine] | 10.4 ± 0.4 days | +5.1% | 13.0 ± 2.2 days | +5.5% | 10.0 ± 0.3 days | -4.6% | 113% | 141% | 109% | 141 % T/C | active against the L1210 leukemia | 162 % T/C | -0.4% | 169 | rate of decomposition to a reactive species (in words) [1]: decomposed less rapidly than compound 10 |
| CN(NS(=O)(=O)c1ccccc1)S(=O)(=O)c1ccccc1 [Compound 7, N,N'-bis(benzenesulfonyl)-N-methylhydrazine] | 13.2 ± 0.7 days | -4.8% | 11.6 ± 0.2 days | -5.2% | 9.4 ± 0.4 days | -13.5% | 147% | 129% | 104% |  |  | 175 % T/C | -2.3% |  | Max. % T/C vs. Sarcoma 180 (Sarcoma 180; at 100 mg/kg): 203 % T/C |
| Cc1ccc(S(=O)(=O)NN(C)S(=O)(=O)c2ccc(C)cc2)cc1 [Compound 8, N,N'-bis (4-toluenesulfonyl)-N-methylhydrazine] | 14.0 ± 1.3 days | +3.7% | 13.6 ± 2.4 days | +0.8% |  |  | 147% | 143% |  | 147 % T/C |  | 165 % T/C | -2.7% | 100 | Max. % T/C vs. Sarcoma 180 (Sarcoma 180; at 50 mg/kg): 197 % T/C; dosage range of activity against the B16 melanoma (B16 melanoma): 50 to 150 mg/kg |
| COc1ccc(S(=O)(=O)NN(C)S(=O)(=O)c2ccc(OC)cc2)cc1 [Compound 9, N,N'-bis (p-methoxybenzenesulfonyl)-N-methylhydrazine] | 13.4 ± 1.0 days | +10.9% | 13.2 ± 1.1 days | +1.9% | 12.2 ± 1.2 days | -1.6% | 149% | 147% | 136% |  |  | 191 % T/C | +2.4% |  | Max. % T/C vs. P388 leukemia (P388 leukemia): 136 % T/C |
| CN(NS(=O)(=O)c1ccc(Cl)cc1)S(=O)(=O)c1ccc(Cl)cc1 [Compound 10, N,N'-bis (p-chlorobenzenesulfonyl)-N-methylhydrazine] | 9.2 ± 0.2 days | +4.1% | 11.4 ± 0.8 days | +4.0% | 11.8 ± 1.1 days | +1.3% | 97% | 120% |  | 124 % T/C | virtually inactive | 163 % T/C | +4.8% | 185 | response vs control in vivo at 150 mg/kg (L1210 leukemia; Mus musculus, L1210, 144 h, read-out: % T/C): 124%; alkylating activity / absorbance (in words) [1]: highest; rate of decomposition to a reactive species (in words) [1]: rapid decomposition to a reactive species |
| Cc1ccc(S(=O)(=O)N(C)NS(C)(=O)=O)cc1 [Compound 12] |  |  |  |  |  |  |  |  |  |  | high level of activity against the L1210 leukemia | 207 % T/C | -1.9% |  | Average Survival Time of Treated Animals, days ± SE (L1210 leukemia; [8]): 14.8 ± 0.4 days; Av. Change wt. % (L1210 leukemia; [8]): +9.1%; Average Survival Time of Treated Animals, days ± SE (L1210 leukemia; [9]): 15.0 ± 0.7 days; Av. Change wt. % (L1210 leukemia; [9]): -2.0%; Average Survival Time of Treated Animals, days ± SE (L1210 leukemia; [10]): 19.2 ± 2.0 days; Av. Change wt. % (L1210 leukemia; [10]): -7.9%; response vs control in vivo at 10 mg/kg (L1210 leukemia; Mus musculus, 144 h, 10 mg/kg once daily for six days, L1210, read-out: % T/C): 161%; response vs control in vivo at 20 mg/kg (L1210 leukemia; Mus musculus, 144 h, 20 mg/kg once daily for six days, L1210, read-out: % T/C): 163%; response vs control in vivo at 30 mg/kg (L1210 leukemia; Mus musculus, 144 h, 30 mg/kg once daily for six days, L1210, read-out: % T/C): 209%; IC50 (B16 melanoma cells): 620 nM; % T/C (B16 melanoma; B16, daily dosage of 10 mg/kg (Table IV footnote d)): 206 % T/C; % T/C (B16 melanoma; B16, daily dosage of 20 mg/kg (Table IV footnote d)): 206 % T/C; dosage range of activity against the B16 melanoma (B16 melanoma): 10 to 30 mg/kg; toxicity at higher dosage levels (in words) (B16 melanoma; above 10-30 mg/kg): toxic at higher dosage levels |
| CCS(=O)(=O)NN(C)S(=O)(=O)c1ccc(C)cc1 [Compound 13] |  |  |  |  |  |  |  |  |  |  |  | 174 % T/C | -1.1% |  | IC50 (B16 melanoma cells): 160 nM; activity against the B16 melanoma (in words) (B16 melanoma; mouse, in vivo): appreciable levels of activity against the B16 melanoma |
